Measured values reported in US10441663B2, “Methods for treating cancer” (Bicycle Therapeutics Limited, priority 2016, dated 2019).

Tested on: LU-01-0486 PDX model
Assay type: in vivo, Mus Musculus
Details: Docetaxel group
Description: The objective of this study was to evaluate the in vivo anti-tumor efficacy of BT1718 in the treatment of MT1-MMP low-expressing LU-01-0486 PDX model in female Balb/C nude mice
Each mouse was inoculated subcutaneously at the right flank with LU-01-0486 of tumor fragment (30 mm^3) for tumor development. The treatments was started when the average tumor volume reaches 164 mm^3.
All the procedures related to animal handling, care and the treatment in the study were performed following the guidance of the Association for Assessment and Accreditation of Laboratory Animal Care (AAALAC). At the time of routine monitoring, the animals were daily checked for any effects of tumor growth and treatments on normal behavior such as mobility, food and water consumption (by looking only), body weight gain/loss (body weights were measured twice weekly), eye/hair matting and any other abnormal effect as stated in the protocol. Death and observed clinical signs were recorded on the basis of the numbers of animals within each subset.
The major endpoint was to see if the tumor growth could be delayed or mice could be cured. Tumor size was measured two times weekly in two dimensions using a caliper, and the volume was expressed in mm^3 using the formula: V=0.5 a×b^2 where a and b are the long and short diameters of the tumor, respectively. The tumor size was then used for calculations of T/C value. […]
TGI was calculated for each group using the formula: TGI (%)=[1−(Ti−T0)/(Vi−V0)]×100; Ti is the average tumor volume of a treatment group on a given day, T0 is the average tumor volume of the treatment group on the day of treatment start, Vi is the average tumor volume of the vehicle control group on the same day with Ti, and V0 is the average tumor volume of the vehicle group on the day of treatment start. […]
A one-way ANOVA was performed to compare tumor volume among groups, and when a significant F-statistics (a ratio of treatment variance to the error variance) was obtained, comparisons between groups were carried out with Games-Howell test. All data were analyzed using Prism. […]

Q: How did the tumor growth turn out when `CC(=O)O[C@@]12CO[C@@H]1C[C@H](O)[C@@]1(C)C(=O)[C@H](O)C3=C(C)[C@@H](OC(=O)[C@H](O)[C@@H](NC(=O)OC(C)(C)C)c4ccccc4)C[C@@](O)([C@@H](OC(=O)c4ccccc4)[C@H]21)C3(C)C` [Docetaxel, reference compound] was run?
A: significant inhibition of tumor growth
